The record followed here is ChEMBL document CHEMBL4837225, “Water-soluble derivatives of evodiamine: Discovery of evodiamine-10-phosphate as an orally active antitumor lead compound” (Eur J Med Chem, 2021).

Series [1] can be described thus: Solubility of the compound in double distilled water. The format is physicochemical.
Series [2] has as its target DNA topoisomerase 2-alpha (Homo sapiens) (UniProt P11388). The series is described as follows: Inhibition of TOP2 (unknown origin) assessed as formation of short DNA fragments using supercoiled plasmid DNA at 100 uM by ethidium bromide staining based gel.
Series [3] concerns the target T1, DNA topoisomerase 1 (Homo sapiens) (UniProt P11387).
T1 sequence (whole entry): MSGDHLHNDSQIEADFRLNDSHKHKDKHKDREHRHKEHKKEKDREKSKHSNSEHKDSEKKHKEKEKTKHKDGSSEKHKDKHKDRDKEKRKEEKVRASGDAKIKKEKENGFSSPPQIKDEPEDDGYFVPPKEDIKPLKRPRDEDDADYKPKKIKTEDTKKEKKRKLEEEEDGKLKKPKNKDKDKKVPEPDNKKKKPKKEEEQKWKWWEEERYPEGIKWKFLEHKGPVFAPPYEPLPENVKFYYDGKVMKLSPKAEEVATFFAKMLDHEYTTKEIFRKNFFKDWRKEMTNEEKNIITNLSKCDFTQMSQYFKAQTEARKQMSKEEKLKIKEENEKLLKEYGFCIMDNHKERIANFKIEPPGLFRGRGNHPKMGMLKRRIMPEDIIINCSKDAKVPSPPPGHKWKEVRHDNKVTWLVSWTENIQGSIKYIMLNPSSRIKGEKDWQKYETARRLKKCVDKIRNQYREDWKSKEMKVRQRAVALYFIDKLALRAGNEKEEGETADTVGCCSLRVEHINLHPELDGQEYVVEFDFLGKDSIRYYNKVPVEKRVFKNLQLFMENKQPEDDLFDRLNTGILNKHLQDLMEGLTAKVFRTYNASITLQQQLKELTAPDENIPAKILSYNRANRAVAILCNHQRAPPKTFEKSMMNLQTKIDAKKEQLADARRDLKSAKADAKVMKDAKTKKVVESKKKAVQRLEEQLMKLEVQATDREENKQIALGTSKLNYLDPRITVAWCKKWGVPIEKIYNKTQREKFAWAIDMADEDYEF
The series is described as follows: Inhibition of TOP1 (unknown origin) assessed as decrease in relaxation of supercoiled DNA using pBR322 plasmid DNA as substrate at 100 uM by ethidium bromide staining based gel electrophoresis.

The test system of the next series is MDA-MB-231. The series is described as follows: Antiproliferative activity against human MDA-MB-231 cells assessed as inhibition of cell proliferation incubated for 72 hrs by CCK8 assay. In kind it is functional, cell-based. The note with it: MDA-MB-231, 72 h. A general note: Formazan colour is commonly taken as a measure of viable cells.
In series [4] the test system is HCT-116. The series is described as follows: Antiproliferative activity against human HCT-116 cells assessed as inhibition of cell proliferation incubated for 72 hrs by CCK8 assay. The format is functional, cell-based. The note with it: HCT-116, 72 h.
The subject of the next series is A549. The series is described as follows: Antiproliferative activity against human A549 cells assessed as inhibition of cell proliferation incubated for 72 hrs by CCK8 assay. The note with it: A549, 72 h. In kind it is functional, cell-based.
The nature of series [5]: Toxicity in BALB/c nude mouse xenografted with human A549 cells assessed as morphological changes in kidney at 150 mg/kg, po bid by H&E staining based light microscopic analysis. The note with it: in vivo. In kind it is organism-based. In general terms: Xenograft models place foreign cells or tissue in a host animal.
The nature of series [6]: Toxicity in BALB/c nude mouse xenografted with human A549 cells assessed as morphological changes in liver at 150 mg/kg, po bid by H&E staining based light microscopic analysis. The format is organism-based. The note with it: in vivo.
The test system of series [7] is HCT-116. The series is described as follows: Antitumor activity against human HCT-116 cells xenografted in BALB/c nude mouse assessed as necrosis at 150 mg/kg, po bid by H&E staining based light microscopic analysis. The format is functional, organism-based.
The subject of series [8] is HCT-116. The series is described as follows: Antitumor activity against human HCT-116 cells xenografted in BALB/c nude mouse assessed as inhibition of tumor growth at 60 mg/kg, po BID administered for 21 days measured by caliper relative to control. In kind it is functional. The note with it: HCT-116, po, 504 h, time 21 day, read-out: TGI.
The subject of series [9] is HCT-116. The series is described as follows: Antitumor activity against human HCT-116 cells xenografted in BALB/c nude mouse assessed as inhibition of tumor growth at 150 mg/kg, po BID measured by caliper relative to control. The note with it: HCT-116, po, read-out: TGI. The format is functional.
Series [10] is described as follows: Half life in mouse liver microsomes. The format is ADME, Microsome.
In series [11] the test system is HCT-116. The series is described as follows: Antitumor activity against human HCT-116 cells xenografted in BALB/c nude mouse assessed as inhibition of tumor growth at 16 mg/kg/day, ip BID administered for 21 days measured by caliper. In kind it is functional, organism-based. The note with it: time 21.0 day.
A short description of series [12]: Toxicity in BALB/c nude nude mouse xenografted with human HCT-116 cells assessed as decrease in body weight at 0.5 mg/kg/day, ip QD administered for 16 consecutive days. The format is organism-based. The note with it: in vivo, 384 h, time 16 day.
The subject of series [13] is HCT-116. The series is described as follows: Antitumor activity against human HCT-116 cells xenografted in BALB/c nude nude mouse assessed as tumor growth inhibition at 16 mg/kg/day, ip QD administered for 16 consecutive days measured by caliper relative to control. In kind it is functional. The note with it: HCT-116, ip, 384 h, time 16 day, read-out: TGI.
The subject of series [14] is HCT-116. The series is described as follows: Antitumor activity against human HCT-116 cells xenografted in BALB/c nude mouse assessed as inhibition of tumor growth at 16 mg/kg, ip QD administered for 21 days measured by caliper. In kind it is functional, organism-based. The note with it: time 21.0 day.

Values after ≈ are worked out from the molar mass of the structure shown. Active and inactive are the calls of the source. No cut-off for these calls is given here.

Chain of DNA topoisomerase 2-alpha (Homo sapiens) (P11388 whole entry, the tested form may be a part): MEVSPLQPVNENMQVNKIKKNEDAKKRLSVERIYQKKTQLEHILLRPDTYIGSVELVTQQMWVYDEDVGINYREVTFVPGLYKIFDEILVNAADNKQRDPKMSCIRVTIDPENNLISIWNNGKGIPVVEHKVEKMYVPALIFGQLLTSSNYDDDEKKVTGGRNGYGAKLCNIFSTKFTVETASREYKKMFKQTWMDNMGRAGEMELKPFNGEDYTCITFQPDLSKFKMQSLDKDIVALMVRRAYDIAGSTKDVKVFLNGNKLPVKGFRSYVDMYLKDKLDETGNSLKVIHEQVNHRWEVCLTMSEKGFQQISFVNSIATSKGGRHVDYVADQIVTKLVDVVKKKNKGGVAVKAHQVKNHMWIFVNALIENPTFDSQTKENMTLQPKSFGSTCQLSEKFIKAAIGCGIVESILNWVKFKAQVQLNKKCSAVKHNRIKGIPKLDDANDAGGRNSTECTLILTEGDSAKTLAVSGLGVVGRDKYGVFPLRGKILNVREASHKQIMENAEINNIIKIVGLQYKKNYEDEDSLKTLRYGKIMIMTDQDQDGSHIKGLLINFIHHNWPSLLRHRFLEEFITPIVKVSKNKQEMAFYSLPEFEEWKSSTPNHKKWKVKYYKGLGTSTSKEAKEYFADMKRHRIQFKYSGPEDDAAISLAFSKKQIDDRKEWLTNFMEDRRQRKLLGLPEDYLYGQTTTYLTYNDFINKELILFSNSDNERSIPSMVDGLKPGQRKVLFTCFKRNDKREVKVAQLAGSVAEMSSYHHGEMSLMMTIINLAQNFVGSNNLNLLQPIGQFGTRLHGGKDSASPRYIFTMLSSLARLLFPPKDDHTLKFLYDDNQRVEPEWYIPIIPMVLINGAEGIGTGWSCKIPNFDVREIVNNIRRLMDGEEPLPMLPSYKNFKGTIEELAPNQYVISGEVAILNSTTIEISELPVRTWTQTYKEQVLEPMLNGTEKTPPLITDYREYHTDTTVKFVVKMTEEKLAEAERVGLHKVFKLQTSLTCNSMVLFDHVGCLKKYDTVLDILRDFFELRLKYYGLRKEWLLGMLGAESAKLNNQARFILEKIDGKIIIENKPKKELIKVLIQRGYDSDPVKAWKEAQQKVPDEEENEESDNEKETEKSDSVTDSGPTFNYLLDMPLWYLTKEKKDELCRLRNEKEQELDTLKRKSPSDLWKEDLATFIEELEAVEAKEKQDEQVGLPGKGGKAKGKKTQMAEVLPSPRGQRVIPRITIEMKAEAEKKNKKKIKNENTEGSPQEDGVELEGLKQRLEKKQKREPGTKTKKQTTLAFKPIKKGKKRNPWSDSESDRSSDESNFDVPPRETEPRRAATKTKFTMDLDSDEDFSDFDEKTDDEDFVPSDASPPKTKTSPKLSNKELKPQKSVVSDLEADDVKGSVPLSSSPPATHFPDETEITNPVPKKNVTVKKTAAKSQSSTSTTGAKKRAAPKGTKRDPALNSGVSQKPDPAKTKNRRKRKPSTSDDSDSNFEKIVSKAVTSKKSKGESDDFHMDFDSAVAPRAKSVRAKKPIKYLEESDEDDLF

As to `CN1c2ccccc2C(=O)N2CCc3c([nH]c4ccc(OC(=O)[C@@H](N)COCc5ccccc5)cc34)C21` (stereo partly specified), the concentration in solution in [1] (solubility) was 12 µg/mL (≈ 24.2 µM). Besides, the inhibition entry in series [2] and in series [3] was “Active” each time. The half-inhibitory concentration (IC50) is more than 10000 nM with MDA-MB-231, 21 nM in the series with HCT-116 [4] and more than 10 µM with A549.
Turning to `CN1c2ccccc2C(=O)N2CCc3c([nH]c4ccc(O)cc34)[C@H]21`, the Activity entry in [5] and in series [6] was “Non-Toxic” in each case. In series [1], this compound displayed a solubility of 11 µg/mL (≈ 34.4 µM). In addition, the inhibition result in [2] was “Active”. Moreover, the IC50 in the series with MDA-MB-231 is 94 nM; in the series on HCT-116 [4], less than 3 nM; with A549 it was 0.28 µM. Also, the result in the series on HCT-116 [7] was Active. For the same compound, the inhibition in vivo at 60 mg/kg in the series with HCT-116 [8] turned out to be 24%. For the same compound, in the series on HCT-116 [9], the inhibition in vivo at 150 mg/kg was 57%. Besides, the half-life in series [10] was 14.3 min.
`CN1c2ccccc2C(=O)N2CCc3c([nH]c4ccc(N)cc34)C21` (stereo unspecified): the TGI entry in the series with HCT-116 [11] was “inactive”. Also, in [1], the solubility worked out at 10 µg/mL (≈ 31.4 µM). Moreover, in series [2], the inhibition entry was “Active”. In series [3], the inhibition result was “inactive”. For the same compound, the concentration for half-maximal inhibition (IC50) is 1800 nM with MDA-MB-231, 390 nM with HCT-116 [4] and 4.8 µM with A549.
On to `CN1c2ccccc2C(=O)N2CCc3c([nH]c4ccc(OC(=O)[C@@H](N)CO)cc34)C21` (stereo partly specified), for which the solubility in [1] was 24 µg/mL (≈ 59 µM). Also, the inhibition entry in series [2] and in series [3] was “Active” each time. Further, the half-inhibitory concentration (IC50) was 2340 nM in the series on MDA-MB-231, less than 3 nM with HCT-116 [4] and 2.61 µM in the series with A549.
On to `CN1c2ccccc2C(=O)N2CCc3c([nH]c4ccc(OC(=O)CCC(=O)O)cc34)C21` (stereo unspecified), for which, in series [1], the concentration in solution (solubility) came to 15 µg/mL (≈ 35.8 µM). Also, in [2], the inhibition entry was “inactive”. The IC50 with MDA-MB-231 was 260 nM; in the series with HCT-116 [4], less than 3 nM; in the series with A549, 5.49 µM.
The matching figures for `CN1c2ccccc2C(=O)N2CCc3c([nH]c4ccc(OS(N)(=O)=O)cc34)C21` (stereo unspecified): 37 µg/mL (≈ 92.9 µM), “Active”, 530 nM, 40 nM and 0.41 µM.
Compound `CN1c2ccccc2C(=O)N2CCc3c([nH]c4ccc(NC(=O)C5CCCN5)cc34)C21` (stereo unspecified) showed a solubility in series [1] of 15 µg/mL (≈ 36.1 µM). Also, in [2], the inhibition result was “Active”. The values for the IC50 with MDA-MB-231, in the series with HCT-116 [4] and in the series on A549 were more than 10000 nM, more than 10000 nM and more than 10 µM, respectively.
`CN1c2ccccc2C(=O)N2CCc3c([nH]c4ccc(NC(=O)C(N)Cc5c[nH]c6ccccc56)cc34)C21` (stereo unspecified) came in with a solubility in [1] of 12 µg/mL (≈ 23.8 µM). In addition, in series [2], the inhibition result is “Active”. The figures for the IC50 in the series on MDA-MB-231, in the series on HCT-116 [4] and in the series with A549 were 520 nM, 1700 nM and more than 10 µM, respectively.
`CN1c2ccccc2C(=O)N2CCc3c([nH]c4ccc(NS(C)(=O)=O)cc34)C21` (stereo unspecified): the TGI entry in the series on HCT-116 [11] is “inactive”. In [1], the solubility was 29 µg/mL (≈ 73.1 µM). Further, the inhibition entry in series [2] is “Active”. For the same compound, the IC50 in the series on MDA-MB-231 came to 190 nM; in the series with HCT-116 [4] it was 460 nM; in the series on A549, 0.72 µM.
In the case of `CN1c2ccccc2C(=O)N2CCc3c([nH]c4ccc(OC(=O)[C@@H]5CCCN5)cc34)C21` (stereo partly specified), the concentration in solution in series [1] (solubility) came to 30 µg/mL (≈ 72 µM). The Activity entry in series [12] was “Toxic”. Moreover, the inhibition result in series [2] is “Active”. Further, the inhibition in vivo at 16 mg/kg/day with HCT-116 [13] turned out to be 55%. The IC50 in the series with MDA-MB-231 was determined as 1150 nM; in the series on HCT-116 [4], 7 nM; in the series on A549, 0.43 µM. Also, the outcome with HCT-116 [14] was inactive. Besides, the inhibition in vivo at 150 mg/kg in the series with HCT-116 [9] turned out to be 39%.
With `CN1c2ccccc2C(=O)N2CCc3c([nH]c4ccc(OC(=O)CCC(=O)OCCN5CCCCC5)cc34)C21` (stereo unspecified), the solubility in series [1] was 18 µg/mL (≈ 33.9 µM). Besides, the inhibition result in [2] was “Active”. The concentration for half-maximal inhibition (IC50) was 680 nM in the series with MDA-MB-231, less than 3 nM in the series on HCT-116 [4] and 9.22 µM in the series with A549.
The matching figures for `CN1c2ccccc2C(=O)N2CCc3c([nH]c4ccc(NC(=O)CN)cc34)C21` (stereo unspecified): 19 µg/mL (≈ 50.6 µM), “Active”, 1200 nM, 1600 nM and 3.7 µM.
On to `CC(C)[C@H](N)C(=O)Oc1ccc2[nH]c3c(c2c1)CCN1C(=O)c2ccccc2N(C)C31` (stereo partly specified), for which the solubility in series [1] came to 18 µg/mL (≈ 43 µM). In addition, the inhibition entry in [2] and in series [3] was “Active” throughout. The half-inhibitory concentration (IC50) in the series with MDA-MB-231 was 49 nM; in the series with HCT-116 [4] it was less than 3 nM; with A549, more than 10 µM.

In general, solubility refers to the concentration that dissolves in the medium under given conditions. Low values mean a poorly soluble substance, high ones a readily soluble substance. Broadly, the IC50 is the concentration at which inhibition is half-maximal. For orientation: half-life means the time in which the quantity being followed falls by half. Low readings indicate rapid decline, high ones slow decline.
